Data published in publication PMC9172056 (Journal of medicinal chemistry, 2022).

experiment: in vitro; conditions: cat

Row | SMILES | CC50 [µM]
1 | CC(C)C[C@H](NC(=O)OC1CC2(C1)CN(C(=O)OC(C)(C)C)C2)C(=O)N[C@H](C=O)C[C@H]1CCNC1=O [Compound 1b, tert-Butyl 6-((((S)-4-methyl-1-oxo-1-(((S)-1-oxo-3-((R)-2-oxopyrrolidin-3-yl)propan-2-yl)amino)pentan-2-yl)carbamoyl)oxy)-2-azaspiro[3.3]heptane-2-carboxylate] | > 100
2 | CC(C)C[C@H](NC(=O)OC1CC2(C1)CN(S(C)(=O)=O)C2)C(=O)N[C@H](C=O)C[C@H]1CCNC1=O [Compound 4b, 2-(Methylsulfonyl)-2-azaspiro[3.3]heptan-6-yl ((S)-4-methyl-1-oxo-1-(((S)-1-oxo-3-((R)-2-oxopyrrolidin-3-yl)propan-2-yl)amino)pentan-2-yl)carbamate] | > 100
3 | CC(C)C[C@H](NC(=O)OC1CN(C(=O)OC(C)(C)C)C1)C(=O)N[C@H](C=O)C[C@H]1CCNC1=O [Compound 12b, tert-Butyl 3-((((S)-4-methyl-1-oxo-1-(((S)-1-oxo-3-((R)-2-oxopyrrolidin-3-yl)propan-2-yl)amino)pentan-2-yl)carbamoyl)oxy)azetidine-1-carboxylate] | > 100
4 | CC(C)C[C@H](NC(=O)OC1CC2(CCN(C(=O)Cc3ccccc3)CC2)C1)C(=O)N[C@H](C=O)C[C@H]1CCNC1=O [Compound 9b, 7-(2-Phenylacetyl)-7-azaspiro[3.5]nonan-2-yl ((S)-4-methyl-1-oxo-1-(((S)-1-oxo-3-((R)-2-oxopyrrolidin-3-yl)propan-2-yl)amino)pentan-2-yl)carbamate] | > 100
5 | CC(C)C[C@H](NC(=O)OC1(C)CN(C(=O)OC(C)(C)C)C1)C(=O)N[C@H](C=O)C[C@H]1CCNC1=O [Compound 13b, tert-Butyl 3-methyl-3-((((S)-4-methyl-1-oxo-1-(((S)-1-oxo-3-((R)-2-oxopyrrolidin-3-yl)propan-2-yl)amino)pentan-2-yl)carbamoyl)oxy)azetidine-1-carboxylate] | > 100
6 | [2H]C([2H])(OC(=O)N[C@@H](CC(C)C)C(=O)N[C@H](C=O)C[C@H]1CCNC1=O)C1CN(C(=O)OC(C)(C)C)C1 [Compound 18b, tert-Butyl 3-(((((S)-4-methyl-1-oxo-1-(((S)-1-oxo-3-((R)-2-oxopyrrolidin-3-yl)propan-2-yl)amino)pentan-2-yl)carbamoyl)oxy)methyl-d2)azetidine-1-carboxylate] | > 100
7 | CC(C)C[C@H](NC(=O)OC1CCC2(C1)CN(C(=O)OC(C)(C)C)C2)C(=O)N[C@H](C=O)C[C@H]1CCNC1=O (stereo partly drawn) [Compound 6b, tert-Butyl 6-((((S)-4-methyl-1-oxo-1-(((S)-1-oxo-3-((R)-2-oxopyrrolidin-3-yl)propan-2-yl)amino)pentan-2-yl)carbamoyl)oxy)-2-azaspiro[3.4]octane-2-carboxylate] | > 100
8 | CC(C)C[C@H](NC(=O)OCC1CN(C(=O)Cc2ccccc2)C1)C(=O)N[C@H](C=O)C[C@H]1CCNC1=O [Compound 15b, (1-(2-Phenylacetyl)azetidin-3-yl)methyl ((S)-4-methyl-1-oxo-1-(((S)-1-oxo-3-((R)-2-oxopyrrolidin-3-yl)propan-2-yl)amino)pentan-2-yl)carbamate] | > 100
9 | CC(C)C[C@H](NC(=O)OC1CC2(CCN(S(C)(=O)=O)CC2)C1)C(=O)N[C@H](C=O)C[C@H]1CCNC1=O [Compound 10b, 7-(Methylsulfonyl)-7-azaspiro[3.5]nonan-2-yl ((S)-4-methyl-1-oxo-1-(((S)-1-oxo-3-((R)-2-oxopyrrolidin-3-yl)propan-2-yl)amino)pentan-2-yl)carbamate] | > 100
10 | CC(C)C[C@H](NC(=O)OC1CC2(CCN(C#N)CC2)C1)C(=O)N[C@H](C=O)C[C@H]1CCNC1=O [Compound 11b, 7-Cyano-7-azaspiro[3.5]nonan-2-yl ((S)-4-methyl-1-oxo-1-(((S)-1-oxo-3-((R)-2-oxopyrrolidin-3-yl)propan-2-yl)amino)pentan-2-yl)carbamate] | > 100
